According to ChEMBL document CHEMBL4138123, “Design, synthesis and biological evaluation of novel pyrazolochalcones as potential modulators of PI3K/Akt/mTOR pathway and inducers of apoptosis in breast cancer cells” (Eur J Med Chem, 2017):

What was measured:
HCT-15 = experiment: Cytotoxicity against human HCT15 cells assessed as cell growth at 1 uM after 48 hrs by sulforhodamine B assay relative to control; assay type: functional; conditions: HCT-15, 48 h, read-out: Activity
SW-620 = experiment: Cytotoxicity against human SW620 cells assessed as cell growth at 1 uM after 48 hrs by sulforhodamine B assay relative to control; assay type: functional; conditions: SW-620, 48 h, read-out: Activity
HL-60(TB) = experiment: Cytotoxicity against human HL-60(TB) cells assessed as cell growth at 0.01 uM after 48 hrs by sulforhodamine B assay relative to control; assay type: functional; conditions: HL-60, 48 h, read-out: Activity
SF-268 = experiment: Cytotoxicity against human SF268 cells assessed as cell growth at 100 uM after 48 hrs by sulforhodamine B assay relative to control; assay type: functional; conditions: SF-268, 48 h, read-out: Activity
MCF7 [1] = experiment: Cytotoxicity against human MCF7 cells assessed as growth inhibition after 48 hrs by MTT assay; assay type: functional, cell-based; conditions: MCF7, 48 h
OVCAR-4 = experiment: Cytotoxicity against human OVCAR4 cells assessed as cell growth at 100 uM after 48 hrs by sulforhodamine B assay relative to control; assay type: functional; conditions: OVCAR-4, 48 h, read-out: Activity
NCI-H522 = experiment: Cytotoxicity against human NCI-H522 cells assessed as cell growth at 1 uM after 48 hrs by sulforhodamine B assay relative to control; assay type: functional; conditions: NCI-H522, 48 h, read-out: Activity
KM12 = experiment: Cytotoxicity against human KM12 cells assessed as cell growth at 0.1 uM after 48 hrs by sulforhodamine B assay relative to control; assay type: functional; conditions: KM12, 48 h, read-out: Activity
A549 = experiment: Cytotoxicity against human A549/ATCC cells assessed as cell growth at 1 uM after 48 hrs by sulforhodamine B assay relative to control; assay type: functional; conditions: A549, 48 h, read-out: Activity
UO-31 = experiment: Cytotoxicity against human UO31 cells assessed as cell growth at 100 uM after 48 hrs by sulforhodamine B assay relative to control; assay type: functional; conditions: UO-31, 48 h, read-out: Activity
Hs-578T = experiment: Cytotoxicity against human Hs 578T cells assessed as cell growth at 100 uM after 48 hrs by sulforhodamine B assay relative to control; assay type: functional; conditions: read-out: Activity
MDA-MB-435 = experiment: Cytotoxicity against human MDA-MB-435 cells assessed as cell growth at 0.01 uM after 48 hrs by sulforhodamine B assay relative to control; assay type: functional; conditions: MDA-MB-435, 48 h, read-out: Activity
NCI-H226 = experiment: Cytotoxicity against human NCI-H226 cells assessed as growth inhibition after 48 hrs by sulforhodamine B assay; assay type: functional; conditions: NCI-H226, 48 h
NCI-H460 = experiment: Cytotoxicity against human NCI-H460 cells assessed as growth inhibition after 48 hrs by sulforhodamine B assay; assay type: functional; conditions: NCI-H460, 48 h
COLO 205 = experiment: Cytotoxicity against human COLO205 cells assessed as cell growth at 10 uM after 48 hrs by sulforhodamine B assay relative to control; assay type: functional; conditions: COLO 205, 48 h, read-out: Activity
SK-MEL-5 [2] = experiment: Cytotoxicity against human SK-MEL-5 cells assessed as cell growth at 1 uM after 48 hrs by sulforhodamine B assay relative to control; assay type: functional; conditions: SK-MEL-5, 48 h, read-out: Activity
NCI/ADR-RES [3] = experiment: Cytotoxicity against human NCI/ADR-RES cells assessed as cell growth at 0.01 uM after 48 hrs by sulforhodamine B assay relative to control; assay type: functional; conditions: read-out: Activity
CCRF-CEM [4] = experiment: Cytotoxicity against human CCRF-CEM cells assessed as cell growth at 10 uM after 48 hrs by sulforhodamine B assay relative to control; assay type: functional; conditions: read-out: Activity
M14 = experiment: Cytotoxicity against human M14 cells assessed as growth inhibition after 48 hrs by sulforhodamine B assay; assay type: functional; conditions: M14, 48 h
CCRF-CEM [5] = experiment: Cytotoxicity against human CCRF-CEM cells assessed as cell growth at 0.1 uM after 48 hrs by sulforhodamine B assay relative to control; assay type: functional; conditions: read-out: Activity
SK-MEL-5 [6] = experiment: Cytotoxicity against human SK-MEL-5 cells assessed as growth inhibition after 48 hrs by sulforhodamine B assay; assay type: functional; conditions: SK-MEL-5, 48 h
HCT-116 = experiment: Cytotoxicity against human HCT116 cells assessed as cell growth at 1 uM after 48 hrs by sulforhodamine B assay relative to control; assay type: functional; conditions: HCT-116, 48 h, read-out: Activity
MDA-MB-231 = experiment: Cytotoxicity against human MDA-MB-231 cells assessed as cell growth at 10 uM after 48 hrs by sulforhodamine B assay relative to control; assay type: functional; conditions: MDA-MB-231, 48 h, read-out: Activity
SNB-19 = experiment: Cytotoxicity against human SNB19 cells assessed as cell growth at 10 uM after 48 hrs by sulforhodamine B assay relative to control; assay type: functional; conditions: SNB-19, 48 h, read-out: Activity
T47D = experiment: Cytotoxicity against human T47D cells assessed as cell growth at 0.01 uM after 48 hrs by sulforhodamine B assay relative to control; assay type: functional; conditions: read-out: Activity
U-251 [7] = experiment: Cytotoxicity against human U251 cells assessed as cell growth at 100 uM after 48 hrs by sulforhodamine B assay relative to control; assay type: functional; conditions: U-251, 48 h, read-out: Activity
OVCAR-5 [8] = experiment: Cytotoxicity against human OVCAR5 cells assessed as cell growth at 100 uM after 48 hrs by sulforhodamine B assay relative to control; assay type: functional; conditions: OVCAR-5, 48 h, read-out: Activity
PC-3 = experiment: Cytotoxicity against human PC3 cells assessed as cell growth at 0.01 uM after 48 hrs by sulforhodamine B assay relative to control; assay type: functional; conditions: PC-3, 48 h, read-out: Activity
NCI/ADR-RES [9] = experiment: Cytotoxicity against human NCI/ADR-RES cells assessed as cell growth at 1 uM after 48 hrs by sulforhodamine B assay relative to control; assay type: functional; conditions: read-out: Activity
SN12C = experiment: Cytotoxicity against human SN12C cells assessed as cell growth at 0.1 uM after 48 hrs by sulforhodamine B assay relative to control; assay type: functional; conditions: read-out: Activity
U-251 [10] = experiment: Cytotoxicity against human U251 cells assessed as growth inhibition after 48 hrs by sulforhodamine B assay; assay type: functional; conditions: U-251, 48 h
OVCAR-3 = experiment: Cytotoxicity against human OVCAR3 cells assessed as cell growth at 0.01 uM after 48 hrs by sulforhodamine B assay relative to control; assay type: functional; conditions: OVCAR-3, 48 h, read-out: Activity
MCF7 [11] = experiment: Cytotoxicity against human MCF7 cells assessed as cell growth at 1 uM after 48 hrs by sulforhodamine B assay relative to control; assay type: functional; conditions: MCF7, 48 h, read-out: Activity
786-0 = experiment: Cytotoxicity against human 786-0 cells assessed as cell growth at 1 uM after 48 hrs by sulforhodamine B assay relative to control; assay type: functional; conditions: 786-0, 48 h, read-out: Activity
OVCAR-5 [12] = experiment: Cytotoxicity against human OVCAR5 cells assessed as cell growth at 10 uM after 48 hrs by sulforhodamine B assay relative to control; assay type: functional; conditions: OVCAR-5, 48 h, read-out: Activity

Row | Compound | growth at 1 µM (HCT-15) | growth at 1 µM (SW-620) | growth at 0.01 µM (HL-60(TB)) | growth at 100 µM (SF-268) | IC50 (MCF7 [1]) | growth at 100 µM (OVCAR-4) | growth at 1 µM (NCI-H522) | growth at 0.1 µM (KM12) | growth at 1 µM (A549) | growth at 100 µM (UO-31) | growth at 100 µM (Hs-578T) | growth at 0.01 µM (MDA-MB-435) | TGI (NCI-H226) | TGI (NCI-H460) | growth at 10 µM (COLO 205) | growth at 1 µM (SK-MEL-5 [2]) | growth at 0.01 µM (NCI/ADR-RES [3]) | growth at 10 µM (CCRF-CEM [4]) | TGI (M14) | growth at 0.1 µM (CCRF-CEM [5]) | further results
1 | COc1ccc(C(=O)/C=C/c2cc(-c3ccc(OC)c(OC)c3)n[nH]2)cc1OC | 53% | 66% | 101% | -25% | 0.8 µM | -40% | 82% | 100% | 77% | -68% | 18% | 89% | 4.23 µM | 4.36 µM | -84% | 86% | 104% | -5% | 4.11 µM | 94% | GI50 (NCI-H226): 1.66 µM; GI50 (NCI-H460): 0.606 µM; GI50 (M14): 1.91 µM; GI50 (SK-MEL-5 [6]): 1.58 µM; TGI (SK-MEL-5 [6]): 2.96 µM; growth at 1 µM (HCT-116): 21%; growth at 10 µM (MDA-MB-231): -18%; growth at 10 µM (SNB-19): -48%; growth at 0.01 µM (T47D): 82%; growth at 100 µM (U-251 [7]): -53%; growth at 100 µM (OVCAR-5 [8]): -41%; growth at 0.01 µM (PC-3): 99%; growth at 1 µM (NCI/ADR-RES [9]): 89%; growth at 0.1 µM (SN12C): 98%; GI50 (U-251 [10]): 1.2 µM; TGI (U-251 [10]): 2.63 µM; growth at 0.01 µM (OVCAR-3): 107%; growth at 1 µM (MCF7 [11]): 49%; growth at 1 µM (786-0): 78%; growth at 10 µM (OVCAR-5 [12]): -30%
2 | COc1cc(C(=O)/C=C/c2cc(-c3cc(OC)c(OC)c(OC)c3)n[nH]2)cc(OC)c1OC | 76% | 85% | 112% | -75% | 0.43 µM | -98% | 29% | 103% | 84% | -100% | -4% | 99% | 3.05 µM | 4.33 µM | -100% | 86% | 105% | -7% | 3.32 µM | 94% | LC50 (NCI-H460): 9.91 µM; LC50 (concentration killing 50% of cells) (M14): 6.13 µM; LC50 (concentration killing 50% of cells) (SK-MEL-5 [6]): 5.49 µM; TGI (SK-MEL-5 [6]): 2.94 µM; growth at 1 µM (HCT-116): 70%; growth at 10 µM (MDA-MB-231): -53%; growth at 10 µM (SNB-19): -62%; growth at 0.01 µM (T47D): 91%; growth at 100 µM (U-251 [7]): -99%; growth at 100 µM (OVCAR-5 [8]): -72%; growth at 0.01 µM (PC-3): 95%; growth at 1 µM (NCI/ADR-RES [9]): 95%; growth at 0.1 µM (SN12C): 98%; LC50 (U-251 [10]): 5.67 µM; TGI (U-251 [10]): 2.96 µM; growth at 0.01 µM (OVCAR-3): 107%; growth at 1 µM (MCF7 [11]): 40%; growth at 1 µM (786-0): 80%; growth at 10 µM (OVCAR-5 [12]): -91%
